Converted amounts (≈) assume the structure as drawn.
Columns and labels:
Assay in all cases: MIC, agar dilution method according to DIN 58 940
Format in all cases: cell-based
[1] = tested on: Candida albicans (C. albicans) ATCC 10231; conditions: for MIC mix: 78 h; for ratio [MIC (single)/(MIC (mixture)]): >1 indicates a synergistic effect; for MIC: Candida albicans, ATCC10231, single compound
Description: (§1) The antimicrobial activity was assessed by determination of the Minimum Inhibitory Concentration (MIC) using the agar dilution method according to DIN 58 940 at the Labor L+SAG, D-Bad Bocklet-Grossenbrach.
(§2) Culture plates with a diameter of 5.5 cm were prepared with fresh, kept liquid (50° C.) Mueller-Hinton Agar (double concentrated, Merck 1.05437)/aqua purificata comprising the compound/compound mixtures in the concentrations indicated in Table 1 according to standard methods. After solidifying and drying (about 1 h at 36° C.), the culture plates were inoculated with 1 μl of a suspension of the respective microorganism with the colony forming unit as outlined in table 1. The inoculated plates were then incubated at 36° C. The MIC's (i.e. the concentrations where still no growth could be observed) were determined after 18 h for E. coli, P. aeruginosa and S. aureus; after 48 h for P. acnes and after 78 h for A. brasiliensis and C. albicans. Per sample two culture plates were prepared. As control incubated and non-incubated cultures were used.
(§3) The suspensions of the microorganisms No. 1-4 were prepared by homogeneous suspension of 3-5 colonies of the same morphology in physiological NaCl-solution. The suspensions were adjusted such, that the haze corresponded to the Mac Farland standard 1.0 (about 3.0*10^8 KBE*/ml). For the preparation of the suspensions of the microorganisms 5 and 6, the microorganisms have been taken with a sterile swab and diluted in an amount of physiological NaCl solution such, that the haze corresponded to the Mac Farland standard 1.0. Afterwards the suspensions of the microorganisms 1 and 3-6 have been further diluted with physiological NaCl-solution in a ratio of 1:10. The colony count was determined using a spiral plater system (see table 2).

[2] = tested on: Staphylococcus aureus (S. aureus) ATCC 6538; conditions: for MIC mix: 18 h; for ratio [MIC (single)/(MIC (mixture)]): >1 indicates a synergistic effect; for MIC: Staphylococcus aureus, ATCC6538, single compound
Description: as §1, §2, §3

[3] = tested on: Aspergillus brasiliensis (A. brasiliensis) ATCC 16404; conditions: for MIC mix: 78 h; for ratio [MIC (single)/(MIC (mixture)]): >1 indicates a synergistic effect; for MIC: Aspergillus brasiliensis, ATCC16404, single compound
Description: as §1, §2, §3

[4] = tested on: Pseudomonas aeruginosa (P. aeruginosa) ATCC 9027; conditions: for MIC mix: 18 h; for ratio [MIC (single)/(MIC (mixture)]): >1 indicates a synergistic effect; for MIC: Pseudomonas aeruginosa, ATCC9027, single compound
Description: as §1, §2, §3

[5] = tested on: Propionibacterium acnes (P. acnes) ATCC 11828; conditions: for MIC: Cutibacterium acnes, ATCC11828, single compound; for MIC mix: 48 h; for ratio [MIC (single)/(MIC (mixture)]): >1 indicates a synergistic effect
Description: as §1, §2, §3

[6] = tested on: Escherichia coli (E. coli) ATCC 8739; conditions: for MIC mix: 18 h; for ratio [MIC (single)/(MIC (mixture)]): >1 indicates a synergistic effect; for MIC: Escherichia coli, ATCC8739, single compound
Description: as §1, §2, §3

[7] = concentration of the component in mixture pHBA/MI
[8] = single compound, 78 h at 36° C.
[9] = single compound, 18 h at 36° C.
[10] = concentration of the component in mixture pHBA/MP
[11] = concentration of the component in mixture pHBA/PE

Question: Which MIC mix [1, 7] does the source give for Cn1sccc1=O [MI, Methylisothiazolinone, reference compound] here?
Answer: 20 µg/mL (≈ 0.174 mM)

Question: And the “ratio [MIC (single)/(MIC (mixture)])” value ([1]; mixture pHBA/MI)?
Answer: 1.50

Question: And the MIC single [1, 8]?
Answer: 30 µg/mL (≈ 0.261 mM)

Question: And the MIC mix [2, 7]?
Answer: 40 µg/mL (≈ 0.347 mM)

Question: And the “ratio [MIC (single)/(MIC (mixture)])” value ([2]; mixture pHBA/MI)?
Answer: 1.75

Question: What about the MIC single [2, 9] of the same molecule?
Answer: 70 µg/mL (≈ 0.608 mM)

Question: And the MIC mix [3, 7]?
Answer: 20 µg/mL (≈ 0.174 mM)

Question: And the “ratio [MIC (single)/(MIC (mixture)])” value ([3]; mixture pHBA/MI)?
Answer: 1.50

Question: What about the MIC single [3, 8] of the same molecule?
Answer: 30 µg/mL (≈ 0.261 mM)

Question: What about the MIC mix [4, 7] of the same molecule?
Answer: <10 µg/mL

Question: What about the “ratio [MIC (single)/(MIC (mixture)])” value ([4]; mixture pHBA/MI) of the same molecule?
Answer: >100

Question: What about the MIC single [4, 9] of the same molecule?
Answer: 40 µg/mL (≈ 0.347 mM)

Question: And the MIC single ([5]; single compound, 48 h at 36° C.)?
Answer: 30 µg/mL (≈ 0.261 mM)

Question: What about the MIC mix [6, 7] of the same molecule?
Answer: 20 µg/mL (≈ 0.174 mM)

Question: What about the “ratio [MIC (single)/(MIC (mixture)])” value ([6]; mixture pHBA/MI) of the same molecule?
Answer: 1.00

Question: What about the MIC single [6, 9] of the same molecule?
Answer: 20 µg/mL (≈ 0.174 mM)

Question: Which results are given for COC(=O)c1ccc(O)cc1 [MP, Methylparabene, reference compound]?
Answer: MIC ([1]; 78 h at 36° C.): 590 µg/mL (≈ 3.88 mM); MIC mix [1, 10]: 390 µg/mL (≈ 2.56 mM); ratio [MIC (single)/(MIC (mixture)]) ([1]; mixture pHBA/MP): 1.51; MIC ([2]; 18 h at 36° C.): 2000 µg/mL (≈ 13.1 mM); MIC mix [2, 10]: 890 µg/mL (≈ 5.85 mM); ratio [MIC (single)/(MIC (mixture)]) ([2]; mixture pHBA/MP): 2.25; MIC ([3]; 78 h at 36° C.): 390 µg/mL (≈ 2.56 mM); MIC mix [3, 10]: 260 µg/mL (≈ 1.71 mM); ratio [MIC (single)/(MIC (mixture)]) ([3]; mixture pHBA/MP): 1.50; MIC ([4]; 18 h at 36° C.): 2000 µg/mL (≈ 13.1 mM); MIC mix [4, 10]: 590 µg/mL (≈ 3.88 mM); ratio [MIC (single)/(MIC (mixture)]) ([4]; mixture pHBA/MP): 3.39; MIC ([5]; 48 h at 36° C.): 1330 µg/mL (≈ 8.74 mM); MIC mix [5, 7]: <10 µg/mL; MIC mix [5, 10]: 890 µg/mL (≈ 5.85 mM); ratio [MIC (single)/(MIC (mixture)]) ([5]; mixture pHBA/MI): >100; ratio [MIC (single)/(MIC (mixture)]) ([5]; mixture pHBA/MP): 1.49; MIC ([6]; 18 h at 36° C.): 890 µg/mL (≈ 5.85 mM); MIC mix [6, 10]: 390 µg/mL (≈ 2.56 mM); ratio [MIC (single)/(MIC (mixture)]) ([6]; mixture pHBA/MP): 2.28

Question: With NCc1ccc(O)cc1 [pHBA, p-Hydroxybenzylamine] as the molecule, how does the MIC ([1]; 78 h at 36° C.) read?
Answer: 5270 µg/mL (≈ 42.8 mM)

Question: What about the MIC mix [1, 7] of the same molecule?
Answer: 980 µg/mL (≈ 7.96 mM)

Question: What about the MIC mix [1, 10] of the same molecule?
Answer: 1580 µg/mL (≈ 12.8 mM)

Question: What about the MIC mix [1, 11] of the same molecule?
Answer: 2340 µg/mL (≈ 19 mM)

Question: What about the “ratio [MIC (single)/(MIC (mixture)])” value ([1]; mixture pHBA/MI) of the same molecule?
Answer: 5.38

Question: What about the “ratio [MIC (single)/(MIC (mixture)])” value ([1]; mixture pHBA/MP) of the same molecule?
Answer: 3.34

Question: What about the “ratio [MIC (single)/(MIC (mixture)])” value ([1]; mixture pHBA/PE) of the same molecule?
Answer: 2.25

Question: What about the MIC ([2]; 18 h at 36° C.) of the same molecule?
Answer: 5270 µg/mL (≈ 42.8 mM)

Question: And the MIC mix [2, 7]?
Answer: 2200 µg/mL (≈ 17.9 mM)

Question: And the MIC mix [2, 10]?
Answer: 3560 µg/mL (≈ 28.9 mM)

Question: What about the MIC mix [2, 11] of the same molecule?
Answer: 7900 µg/mL (≈ 64.1 mM)

Question: What about the “ratio [MIC (single)/(MIC (mixture)])” value ([2]; mixture pHBA/MI) of the same molecule?
Answer: 2.4

Question: What about the “ratio [MIC (single)/(MIC (mixture)])” value ([2]; mixture pHBA/MP) of the same molecule?
Answer: 1.48

Question: What about the “ratio [MIC (single)/(MIC (mixture)])” value ([2]; mixture pHBA/PE) of the same molecule?
Answer: 0.67

Question: What about the MIC ([3]; 78 h at 36° C.) of the same molecule?
Answer: 5270 µg/mL (≈ 42.8 mM)

Question: What about the MIC mix [3, 7] of the same molecule?
Answer: 980 µg/mL (≈ 7.96 mM)

Question: What about the MIC mix [3, 10] of the same molecule?
Answer: 1050 µg/mL (≈ 8.53 mM)

Question: And the MIC mix [3, 11]?
Answer: 2340 µg/mL (≈ 19 mM)

Question: And the “ratio [MIC (single)/(MIC (mixture)])” value ([3]; mixture pHBA/MI)?
Answer: 5.38

Question: What about the “ratio [MIC (single)/(MIC (mixture)])” value ([3]; mixture pHBA/MP) of the same molecule?
Answer: 5.02

Question: What about the “ratio [MIC (single)/(MIC (mixture)])” value ([3]; mixture pHBA/PE) of the same molecule?
Answer: 2.25

Question: What about the MIC ([4]; 18 h at 36° C.) of the same molecule?
Answer: 5270 µg/mL (≈ 42.8 mM)

Question: And the MIC mix [4, 7]?
Answer: 650 µg/mL (≈ 5.28 mM)

Question: What about the MIC mix [4, 10] of the same molecule?
Answer: 2400 µg/mL (≈ 19.5 mM)

Question: And the MIC mix [4, 11]?
Answer: 3510 µg/mL (≈ 28.5 mM)

Question: What about the “ratio [MIC (single)/(MIC (mixture)])” value ([4]; mixture pHBA/MI) of the same molecule?
Answer: 8.11

Question: And the “ratio [MIC (single)/(MIC (mixture)])” value ([4]; mixture pHBA/MP)?
Answer: 2.20

Question: And the “ratio [MIC (single)/(MIC (mixture)])” value ([4]; mixture pHBA/PE)?
Answer: 1.50

Question: What about the MIC ([5]; 48 h at 36° C.) of the same molecule?
Answer: 7900 µg/mL (≈ 64.1 mM)

Question: What about the MIC mix [5, 7] of the same molecule?
Answer: 650 µg/mL (≈ 5.28 mM)

Question: What about the MIC mix [5, 10] of the same molecule?
Answer: 3560 µg/mL (≈ 28.9 mM)

Question: What about the MIC mix [5, 11] of the same molecule?
Answer: 5270 µg/mL (≈ 42.8 mM)

Question: What about the “ratio [MIC (single)/(MIC (mixture)])” value ([5]; mixture pHBA/MI) of the same molecule?
Answer: 12.15

Question: And the “ratio [MIC (single)/(MIC (mixture)])” value ([5]; mixture pHBA/MP)?
Answer: 2.22

Question: And the “ratio [MIC (single)/(MIC (mixture)])” value ([5]; mixture pHBA/PE)?
Answer: 1.50

Question: What about the MIC ([6]; 18 h at 36° C.) of the same molecule?
Answer: 5270 µg/mL (≈ 42.8 mM)

Question: What about the MIC mix [6, 7] of the same molecule?
Answer: 980 µg/mL (≈ 7.96 mM)

Question: What about the MIC mix [6, 10] of the same molecule?
Answer: 1580 µg/mL (≈ 12.8 mM)

Question: And the MIC mix [6, 11]?
Answer: 3510 µg/mL (≈ 28.5 mM)

Question: And the “ratio [MIC (single)/(MIC (mixture)])” value ([6]; mixture pHBA/MI)?
Answer: 5.38

Question: And the “ratio [MIC (single)/(MIC (mixture)])” value ([6]; mixture pHBA/MP)?
Answer: 3.34

Question: What about the “ratio [MIC (single)/(MIC (mixture)])” value ([6]; mixture pHBA/PE) of the same molecule?
Answer: 1.50

From patent publication US20150208649A1, “NOVEL COMPOSITIONS COMPRISING P-HYDROXYBENZYLAMINE” (DSM IP ASSETS B.V., priority 2012, published 2015)
